Reference: PubChem BioAssay (NCI)
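Interpolation was linear, between the two tested concentrations surrounding the appropriate level; five concentrations were tested over 48 hours in 96-well plates. TGI: total growth inhibition.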

What was measured:
Test in all cases: inhibition of tumour cell growth, NCI panel, 48 h
MDA-N = test system: MDA-N
MDA-MB-231 breast = test system: MDA-MB-231 breast
COLO 205 colon = test system: COLO 205 colon
TK-10 renal = test system: TK-10 renal
DU-145 prostate = test system: DU-145 prostate
RPMI-8226 leukemia = test system: RPMI-8226 leukemia
OVCAR-3 ovarian = test system: OVCAR-3 ovarian
MOLT-4 leukemia = test system: MOLT-4 leukemia
OVCAR-8 ovarian = test system: OVCAR-8 ovarian
MDA-MB-435 = test system: MDA-MB-435

Row | SMILES | TGI (MDA-N) | TGI (MDA-MB-231 breast) | TGI (COLO 205 colon) | TGI (TK-10 renal) | TGI (DU-145 prostate) | TGI (RPMI-8226 leukemia) | TGI (OVCAR-3 ovarian) | TGI (MOLT-4 leukemia) | TGI (OVCAR-8 ovarian) | TGI (MDA-MB-435)
1 | C[N+](CCCl)(CCCl)Cc1cccc2cccc([N+](=O)[O-])c12 | > 100 µM | > 100 µM | > 100 µM | > 100 µM | > 100 µM | > 100 µM | > 100 µM | > 100 µM | > 100 µM | > 100 µM
2 | CC(C)C(=O)[C@@]1(C)SC[C@H]2CCN=C21 | > 100 µM |  | > 100 µM | > 100 µM | > 100 µM | > 100 µM | > 100 µM | > 100 µM | > 100 µM | > 100 µM
3 | O=c1[nH]c2c(nc1NC13CC4CC(CC(C4)C1)C3)c(=O)oc1ccccc12 |  |  | > 100 µM | > 100 µM |  | > 100 µM | > 100 µM | > 100 µM | > 100 µM | 
4 | CNC(C#N)c1ccc(OC)cc1 (stereo not drawn) | > 100 µM | > 100 µM | > 100 µM | > 100 µM | > 100 µM |  | > 100 µM | > 100 µM | > 100 µM | > 100 µM
5 | COC(=O)C1=C(C)NC2=C(C(=O)c3ccccc32)C1c1cn(-c2ccccc2)nc1-c1ccccc1 (stereo not drawn) | > 100 µM | > 100 µM | > 100 µM | > 100 µM | > 100 µM | > 100 µM | > 100 µM | 44.6 µM | > 100 µM | > 100 µM
6 | CCOC(=O)c1c(-c2ccc(OC)cc2)c(C#N)c(=S)n(C2OC(COC(C)=O)C(OC(C)=O)C(OC(C)=O)C2OC(C)=O)c1-c1ccccc1 (stereo not drawn) | > 100 µM | > 100 µM |  | > 100 µM | > 100 µM | > 100 µM | > 100 µM | > 100 µM |  | > 100 µM
7 | CCOc1cc2c(OCc3ccccc3)cc3c4cc(OC)c(OC)cc4c[n+](C)c3c2cc1OC |  | 6.65 µM | 0.481 µM | > 62.6 µM | 23.2 µM | > 29.6 µM | 6.17 µM | > 20.3 µM | 5.6 µM | 
8 | COc1ccc(N2C(=O)C(=O)N(c3ccccc3[N+](=O)[O-])C2=S)cc1 | 74.2 µM | > 100 µM | 44.4 µM | 65.7 µM | > 100 µM | 94.2 µM |  | > 100 µM | 44.9 µM | 88.2 µM
9 | CN=c1nc2sc3c(c2c(NC(=S)NC)s1)CCCC3 | > 100 µM | > 100 µM | > 100 µM | > 100 µM | > 100 µM | > 100 µM | > 100 µM | > 100 µM |  | > 100 µM
10 | COC(=O)CCC1=CCC2(SC)C(=O)Nc3cccc1c32 (stereo not drawn) |  | > 100 µM | > 100 µM | > 100 µM | > 100 µM | > 100 µM | > 100 µM | > 100 µM | > 100 µM | > 100 µM
11 | NS(=O)(=O)c1ccc(N=Nc2nc3[nH]c(=O)[nH]c(=O)c3[nH]2)cc1 | > 100 µM | > 100 µM | > 100 µM | > 100 µM | > 100 µM | > 100 µM | > 100 µM |  | > 100 µM | > 100 µM
12 | COC(=O)c1cc2c3c(ccc2[nH]1)N(C(=O)c1cc2cc(OC)c(OC)c(OC)c2[nH]1)CC3CCl (stereo not drawn) |  | > 100 µM | > 20.9 µM | > 100 µM | > 84.6 µM | > 21.5 µM | > 100 µM | > 100 µM | > 100 µM | > 100 µM
13 | CCCCN(CCCC)CC(O)c1cc(-c2ccc(C(F)(F)F)cc2)nc(-c2ccc(C(F)(F)F)cc2)c1 (stereo not drawn) |  | > 100 µM | > 100 µM | > 100 µM | > 100 µM | > 100 µM | > 100 µM | > 100 µM | > 100 µM | > 100 µM
14 | CCCCC1=NNC(=O)C1 | > 100 µM | > 100 µM | > 100 µM |  |  | > 100 µM | > 100 µM | > 100 µM | > 100 µM | > 100 µM
15 | CNc1ccc(C(=O)CC(O)CCC(C)C2OC(=O)CC(O)CC(=O)CC(O)CC(O)CC(O)CC(O)CC3(O)CC(O)C(C(=O)NCCN(C)C)C(CC(OC4OC(C)C(O)C(NC(=O)CN5CCN(C)CC5)C4O)/C=C/C=C/C=C/C=C\C=C/C=C/C=C/C2C)O3)cc1 (stereo not drawn) | > 100 µM | > 100 µM | > 100 µM | > 100 µM | > 100 µM |  |  | > 100 µM | > 100 µM | > 100 µM
16 | CC(C)(C)[Si](OC1CC(n2cnc3c(N)ncnc32)OC1CO)(c1ccccc1)c1ccccc1 (stereo not drawn) |  |  | 88.1 µM | 53.4 µM |  | 43.9 µM | 33.9 µM | > 100 µM | 33.3 µM | 
17 | Oc1cn(-c2ccc(Cl)cc2)nc1-c1nnc(-c2ccccc2)o1 |  | 36.1 µM | > 49.8 µM | 3.76 µM | > 60.6 µM | 31.9 µM | 11.6 µM | 19.9 µM | 14.2 µM | 10.4 µM
18 | CCN(CC)CC1CCCCCCCCCCC1=O (stereo not drawn) |  |  | > 100 µM | > 100 µM |  | > 100 µM | > 100 µM | > 100 µM | > 100 µM | 
19 | Nc1ccc2c(c1)N(C(=O)c1cc3cc(NC(=O)c4cc5ccccc5o4)ccc3[nH]1)CC2CCl (stereo not drawn) | 0.512 µM |  | 1.6 µM | 2.07 µM | 2.08 µM | 0.287 µM | 0.56 µM | > 100 µM | 1.45 µM | 0.512 µM
20 | CCCCc1c(N(C)C)c(OC(C)=O)c(-c2cn(C)c3ccccc23)oc1=O | 44.8 µM |  | 44.1 µM | > 100 µM | > 100 µM |  | 67.9 µM | > 100 µM |  | 47.8 µM
21 | COc1cc2cc3c4c(cc(OC)c(OC)c4c2cc1OC)CCN3C(=O)OCCN1CCNCC1 |  |  | 20.9 µM | 28.3 µM |  | 34.6 µM | 28.8 µM | 34.8 µM | 29.7 µM | 
22 | O=C1C(Cl)N(c2ccc(Cl)cc2)C1c1c[nH]c2ccccc12 (stereo not drawn) |  |  | 47.8 µM | 34.8 µM |  | > 100 µM | 36.1 µM | 70 µM | > 100 µM | 
23 | CN(CC(=O)O)c1ncc2c(n1)-c1ccccc1SC2 | > 100 µM | > 100 µM | > 100 µM | > 100 µM | > 100 µM | > 100 µM |  | > 100 µM | > 100 µM | > 100 µM
